The test system of series [1] is MDA-MB-231 cells. It is filed as cell-based, human. As to conditions: 48 h. The source says: (§1) The antitumor activity of the prepared cyclic peptides against human hepatocellular carcinoma cells (HepG-2), human cervical cancer cell lines (HeLa) and human breast cancer cells (MDA-MB-231) was examined by MMT assay, and the mouse fibroblast L929 cells were used as the model cells to evaluate the toxicity of cyclopeptides to normal cell lines. Due to the absence of an authentic standard, taxol was chosen as a control because it is a widely used chemotherapeutic drug for the treatment of various cancers, including liver cancer.
(§2) Samples were dissolved in DMSO and diluted into different concentrations ([…], 18.75, 25, 37.5, 50, 75, 100 and 250 μM) and stored at 4 °C. Cells in the logarithmic growth phase were digested with trypsin and then seeded in 96-well plates at a density of 2 × 10^4 cells/well in 100 μL of culture medium. The cells were treated with different concentrations of the tested compound, and a blank control group without the drug was also set up. Six wells were repeated for each dose. After 48 h of co-incubation, MTT solution (100 μL, 0.5 mg/mL) was added, followed by incubation for another 4 h. After discarding the supernatant, 100 μL of DMSO was added per well, and the absorbance (OD) values were measured at 490 nm using an enzyme marker. Cell viability was calculated by the formula: Cell viability (%) = As/Ab × 100% (where As is the absorbance value of the experimental group and Ab is the absorbance value of the blank group). The obtained data were processed using SPSS19 software to obtain IC50 values.

The subject of series [2] is cytochrome C. Description: Western blot of cytochrome C in the cytosol. The class given is cell-based, human. As to conditions: HepG-2 cells, increasing peptide concentrations, vs control. The source says: Moreover, as mentioned previously and in others’ reports, the apoptosis of HepG-2 induced by galaxamide might be related to a mitochondria-mediated pathway. It has been known that with the decrease in the mitochondrial membrane potential, the cytochrome C in mitochondrion is released to the cytosol and can be detected. Therefore, we have also checked the content of cytochrome C in the cytosol by Western blotting to further verify the mitochondrial apoptotic pathway.
HepG-2 cells (5 × 10^6 cells) in the medium were treated with different concentrations of compounds for the required time and were washed twice with ice-cold PBS. The cells were scraped into cell lysate buffer containing phenylmethanesulfonyl fluoride (PMSF) and transferred to a 1.5 mL centrifuge tube, then lysed for 20 min at 4 °C. After centrifuging (12,000 r/min) for 20 min, the supernatant was collected and measured using the BCA Protein Assay Kit (Beyotime Biotechnology Co. Ltd., Shanghai, China)). Protein samples were then electrophoresed on 12% SDS-polyacrylamide gels and transferred to polyvinylidene difluoride (PVDF) membranes. The membranes were then closed with 5% skim milk in Tris-buffered saline Tween 20 (TBST) (containing 50 mM Tris-HCl, 150 mM NaCl and 0.02% Tween-20) for 2 h. […]
(In general: A western blot detects proteins with antibodies after separation by electrophoresis.)

The subject of series [3] is p53. Description: Western blot of p53 level. To be noted: HepG-2 cells, 48 h, increasing drug concentration. It is filed as cell-based, human. The source says: The p53 tumor suppressor plays a key role in preventing tumor development. In cancers retaining wild-type p53, the function of p53 can be suppressed by a variety of factors, and the murine double minute 2 (MDM2) protein is an important endogenous cellular inhibitor of p53 [29]. Therefore, inhibiting or blocking MDM2 protein should be an efficient strategy for the development of an antitumor agent. Actually, various MDM2 inhibitors have been studied and screened in recent years, including small molecules and polypeptides. […] Considering that the isoindolinone fragment is always present in the structure of MDM2 inhibitors and plays an important role in binding to the target protein, we tried to detect the MDM2 and p53 protein levels by Western blotting to assess the inhibiting ability of cyclic peptides containing isoindolinone fragments to MDM2 oncoprotein.
HepG-2 cells (5 × 10^6 cells) in the medium were treated with different concentrations of compounds for the required time and were washed twice with ice-cold PBS. The cells were scraped into cell lysate buffer containing phenylmethanesulfonyl fluoride (PMSF) and transferred to a 1.5 mL centrifuge tube, then lysed for 20 min at 4 °C. After centrifuging (12,000 r/min) for 20 min, the supernatant was collected and measured using the BCA Protein Assay Kit (Beyotime Biotechnology Co. Ltd., Shanghai, China)). […]

Series [4] concerns HepG-2 cells. Description: cells. As to conditions: compound 8 vs compound 4.
From the text: as §1, §2

In series [5] the test system is L929 cells. Description: cells. As to conditions: 48 h.
From the text: as §1, §2

Series [6] concerns HepG-2 cells. Put plainly: Intracellular Ca2+ level, Fluo-3 AM flow cytometry. It is filed as cell-based, human. As to conditions: 24 h treatment. The source says:
It has been clear that subtle changes in Ca^2+ concentration, such as intracellular calcium overload, can regulate and trigger apoptosis by inducing the production of mitochondrial trifunctional protein [24]. In this paper, we tried to study the influence of our prepared cyclic peptide on the intracellular calcium ion concentration. The cell-permeable fluorescent dye, Fluo-3 AM, is the most commonly used indicator to detect intracellular calcium ion concentration. […] Based on this principle, intracellular calcium ion concentrations can be detected by flow cytometry. In this paper, HepG-2 cells treated with solvent and the desired concentration of compound 8 for 24 h were collected and co-incubated with Fluo-3 AM. After loading, intracellular Ca^2+ levels were measured by flow cytometry.
Cells incubated in 6-well plates were treated in a similar way as mentioned above, and then 100 µL of Fluo-3 AM (5 µM) was added and incubated for 1 h at 37 °C away from light. After rewashing the cells, the suspended precipitate in PBS was checked by flow cytometry (excitation at 488 nm and emission at 525 nm).
A general note: Flow cytometry measures light scatter and fluorescence of single cells or particles in a stream.

Series [7] relates to HepG-2 cells. The class given is cell-based, human. As to conditions: 48 h; for Q4 cells (viable, lower left): human. The procedure:
HepG-2 cells were treated with 0, 5.5, 11 and 22 µM of compound 8 and incubated for 48 h, then double-stained carefully by membrane-linked protein Annexin-V-fluorescein isothiocyanate (FITC) and propidium iodide (PI) for flow cytometry analysis. Generally, in the early stages of apoptosis, phosphatidylserine flips from the inner cell membrane to the surface of the cell membrane. […] Propidium iodide (PI) is a nucleic acid dye that can only cross the membrane of advanced apoptosis and necrotic cells, reddening the nucleus. Therefore, when the drug-treated cells are double-stained by the two fluorescent dyes, early and late apoptosis and necrotic cells can be clearly distinguished.
HepG-2 cells were seeded in a 6-well plate (2 × 10^5 cells per well). The different concentrations of compound 8 (0, 5.5, 11, 22 μg/mL) were added and incubated for 48 h to induce apoptosis. The collected cells were centrifuged (2000 r/min) for 5 min and resuspended in PBS (200 μL). Then, 5 μL of Annexin V-FITC was added and incubated for 10 min at room temperature away from light. Finally, 5 µL propidium iodide solution was added and incubated for 5 min away from light. The fluorescence intensity was detected by flow cytometry and analyzed by utilizing FlowJo_V10 software (FlowJo X 10.0.7r2, BD Biosciences, Franklin Lakes, NJ, USA).

Read-outs that look alike come from different tables or passages of the source. *1 amine or outer side, *2 acyl side, *3 side chain or, on linkers, in order; H or OH if unused. Where a SMILES comes first, the peptide text is derived from it. [ ]: non-standard residue; d: D form. X1 = O=C1c2ccccc2[C@@](O)(CN(Cc2ccccc2)[*:1])N1CC(=O)[*:2]; NMeL = CN[C@@H](CC(C)C)C(=O)O A value given as a limit tells only on which side of the number the result lay.

These results are taken from publication PMC9227305, “Photoinduced Synthesis of Methylated Marine Cyclopeptide Galaxamide Analogs with Isoindolinone as Anticancer Agents” (Marine Drugs, 2022).

In general, IC50 refers to the midpoint of a concentration-inhibition curve. Consider `CC(C)C[C@@H]1NC(=O)CN2C(=O)c3ccccc3[C@@]2(O)CN(Cc2ccccc2)C(=O)[C@H](CC(C)C)NC(=O)[C@H](CC(C)C)N(C)C(=O)[C@H](CC(C)C)NC(=O)[C@H](CC(C)C)NC1=O` [Compound 8, 3-Hydroxy-isoindolinone-cyclo-Gly-Leu-N-Me-Leu-Leu-Leu-Leu] (cyclo(LL[NMeL]L[X1]L)), for which the results for the concentration for half-maximal inhibition (IC50) in series [1] and in series [5] were 41.7 ± 3.2 µM and above 400 µM, respectively. For the same compound, the “level of cytochrome C in the cytosol” value in series [2] is reported as “increased significantly”. Moreover, the p53 protein expression result in series [3] was “increase”. Moreover, the “antitumor activity relative to compound 4” value in series [4] was “eight times stronger”. Further, the “Fluo-3 fluorescence intensity (intracellular Ca2+) relative to control group” value in series [6] is recorded as 4.83 times. For the same compound, the “Q3 cells (apoptosis cells)” value in series [7] (22 μM) worked out at 32.4%. Also, the “Q4 cells (viable, lower left)” value is listed as 86.2% in series [7] (5.5 µM), 77.3% in series [7] (11 µM) and 65.4% in series [7] (22 µM).
